Source: patent US12479852B2, “Compounds, compositions, and methods for protein degradation” (DANA-FARBER CANCER INSTITUTE, INC., priority 2019, dated 2025)

Tested on: synovial sarcoma cell lines
Experiment: testing against a panel of synovial sarcoma cell lines (antiproliferation)
Format: cell-based
Details: FIG. 1

O=C(CCOCCOCCOCCNc1cccc2c1C(=O)N(C1CCC(=O)NC1=O)C2=O)NCCc1ccc(N2C[C@@H]3C[C@H]2CN3/C=C/C(=O)c2ccccc2O)cc1 (stereo partly drawn) [Compound E1, 3-(2-(2-(2-((2-(2,6-dioxopiperidin-3-yl)-1,3-dioxoisoindolin-4-yl)amino)ethoxy)ethoxy)ethoxy)-N-(4-((1S,4S)-5-((E)-3-(2-hydroxyphenyl)-3-oxoprop-1-en-1-yl)-2,5-diazabicyclo[2.2.1]heptan-2-yl)phenethyl)propanamide]
antiproliferation effect against synovial sarcoma lines: antiproliferation effect
